Earlier results, collected in US20150376254A1, “GAMMA-MSH ANALOGUES” (TXP Pharma GmbH, priority 2014, published 2015).

Key:
[1] = test system: normal human lung fibroblasts (NHLF); details: TGFβ1-induced NHLF; at higher doses; detailed in U.S. provisional application 61/785,631
MC5r = MC5r (Homo sapiens, UniProt P33032); details: J. Med. Chem. 2005, 48, 1839-1848
MC3r = MC3r (Homo sapiens, UniProt P41968); details: relative to MC4r; J. Med. Chem. 2005, 48, 1839-1848
MC3r, sequence (P41968 whole entry): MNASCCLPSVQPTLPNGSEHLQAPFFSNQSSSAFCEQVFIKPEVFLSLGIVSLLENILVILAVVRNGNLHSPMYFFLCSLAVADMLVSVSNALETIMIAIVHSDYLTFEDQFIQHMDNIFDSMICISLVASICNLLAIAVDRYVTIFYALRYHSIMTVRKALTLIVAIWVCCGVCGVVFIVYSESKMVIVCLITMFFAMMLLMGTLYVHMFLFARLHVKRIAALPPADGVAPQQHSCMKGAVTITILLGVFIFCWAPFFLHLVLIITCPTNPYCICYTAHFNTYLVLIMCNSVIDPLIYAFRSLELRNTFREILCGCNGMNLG

MC5r, sequence (P33032 whole entry): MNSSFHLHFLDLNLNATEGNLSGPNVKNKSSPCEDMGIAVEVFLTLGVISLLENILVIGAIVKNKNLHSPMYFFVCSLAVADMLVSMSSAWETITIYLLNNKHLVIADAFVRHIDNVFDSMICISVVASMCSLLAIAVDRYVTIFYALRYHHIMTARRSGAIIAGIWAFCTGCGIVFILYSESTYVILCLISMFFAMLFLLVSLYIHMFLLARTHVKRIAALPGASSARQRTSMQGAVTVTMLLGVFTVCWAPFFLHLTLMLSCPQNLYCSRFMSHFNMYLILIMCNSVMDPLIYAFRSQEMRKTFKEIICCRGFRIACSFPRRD

Row | Substance | ECM collagen [1] | binding affinity against the MC5r (MC5r) | affinity to the MC3r (MC3r)
1 | ACTH: adrenocorticotropic hormone, a melanocortin peptide primarily binding MC2R (SYSMEHFRWGKPVGKKRRPVKVYPNGAEDESAEAFPLEF; Corticotropin; UniProt P01189 138-176, looked up) | statistically significant reduction |  | 
2 | γ-MSH |  | weak | higher affinity
